The record followed here is patent publication US12257243B2, “5-hydroxy-7-oxabicyclo[2.2.1]heptane-2-carboxamide derivatives for inducing chondrogenesis for treating joint damage” (NOVARTIS AG, priority 2018, dated 2025).

The target of the experiment is ALP in normal human articular chondrocytes (NHACs). Description: Alkaline Phosphatase (ALP) activity assay (staining and quantitation) in NHACs, prevention of chondrocyte hypertrophy. The format is cell-based. The settings on record: human IL-1 beta 10 ng/mL, 12 days; for IC50: Fast Blue RR staining, high content imaging, read-out: ALP in NHAC IC50; for ALP in NHAC (% Efficacy) / Emax: value in parentheses; for Emax: read-out: ALP in NHAC (% Efficacy). The essentials:
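Primary human articular chondrocytes plated at 7,500 cells/well in DMEM with 10% FBS alongside test compound, incubated 5 h at 37 °C, then given IL-1β (10 ng/mL final) for 12 days. Fixed cells stained for ALP with Fast Blue RR/naphthol AS-MX, Hoechst counterstain. Read by fluorescence imaging (561 nm) and/or high-content cell scoring.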

The structures appear in SMILES notation. Read-outs that look alike come from different tables or passages of the source.

As to `Cn1nc(C(F)(F)F)cc1[C@H]1[C@H]2O[C@H](C[C@@H]2O)[C@@H]1C(=O)Nc1cc(C(F)(F)F)ccc1C#N` (single isomer, unassigned) [Example 72a, (1R,2R,3S,4R,5S)—N-(2-cyano-5-(trifluoromethyl)phenyl)-5-hydroxy-3-(1-methyl-3-(trifluoromethyl)-1H-pyrazol-5-yl)-7-oxabicyclo[2.2.1]heptane-2-carboxamide or (1S,2S,3R,4S,5R)—N-(2-cyano-5-(trifluoromethyl)phenyl)-5-hydroxy-3-(1-methyl-3-(trifluoromethyl)-1-pyrazol-5-yl)-7-oxabicyclo[2.2.1]heptane-2-carboxamide], the IC50 came out at 3.1 µM and the “ALP in NHAC (% Efficacy)” value stood at 107%.
Turning to `CC(C)n1cc([C@H]2[C@H]3O[C@H](C[C@@H]3O)[C@@H]2C(=O)Nc2cc(C(F)(F)F)ccc2F)c(C(F)(F)F)n1` (racemic) [Example 85, rac-(1R,2R,3S,4R,5S)—N-(2-fluoro-5-(trifluoromethyl)phenyl)-5-hydroxy-3-(1-isopropyl-3-(trifluoromethyl-1H-pyrazol-4-yl-7-oxabicyclo[2.2.1]heptane-2-carboxamide], where the note is “Chondrocyte, 288 h”, the half-maximal inhibitory concentration (IC50) is > 30 µM and the Emax worked out at 44%.
`O=C(Nc1cccc(C(F)(F)F)c1)[C@@H]1[C@@H](c2ccnc(F)c2)[C@H]2O[C@@H]1C[C@@H]2O` (racemic) [Example 80, rac-(1R 2R,3S,4R,5S)-3-(2-fluoropyridin-4-yl)-5-hydroxy-N-(3-(trifluoromethyl)phenyl)-7-oxabicyclo[2.2.1]heptane-2-carboxamide]: where the note is “Chondrocyte, 288 h”, the IC50 amounted to 23 µM and the Emax came out at 34%.
Taken in the same sequence, the figures for `Cc1ccc(C(F)(F)F)cc1NC(=O)[C@@H]1[C@@H](c2cccc(C(F)(F)F)c2)[C@H]2O[C@@H]1C[C@@H]2O` (racemic) [Example 14, rac-(1R,2R,3S,4R,5S)-5-hydroxy-N-(2-methyl-5-(trifluoromethyl)phenyl)-3-(3-(trifluoromethyl)phenyl)-7-oxabicyclo[2.2.1]heptane-2-carboxamide] were 13 µM and 78%.
As for `Cn1cc([C@H]2[C@H]3O[C@H](C[C@@H]3O)[C@@H]2C(=O)Nc2cccc(C(F)(F)F)c2)c(C(F)(F)F)n1` (single isomer, unassigned) [Example 32a, (1R,2R,3S,4R,5S)-5-hydroxy-3-(1-methyl-3-(trifluoromethyl)-1H-pyrazol-4-yl)-N-(3-(trifluoromethyl)phenyl)-7-oxabicyclo[2.2.1]heptane-2-carboxamide or (1S,2S,3R,4S,5R)-5-hydroxy-3-(1-methyl-3-(trifluoromethyl)-1H-pyrazol-4-yl)-N-(3-(trifluoromethyl)phenyl)-7-oxabicyclo[2.2.1]heptane-2-carboxamide], the IC50 is 6.6 µM and the “ALP in NHAC (% Efficacy)” value came to 87%.
On to `Cc1cc(NC(=O)[C@@H]2[C@@H](c3cccc(C(F)(F)F)c3)[C@H]3O[C@@H]2C[C@@H]3O)cc(C(F)(F)F)c1` (racemic) [Example 13, rac-(1R,2R,3S,4R,5S)-5-hydroxy-N-(3-methyl-5-(trifluoromethyl)phenyl)-3-(3-(trifluoromethyl)phenyl)-7-oxabicyclo[2.2.1]heptane-2-carboxamide], for which, where the note is “Chondrocyte, 288 h”, the half-maximal inhibitory concentration (IC50) was found to be 11 µM and the Emax amounted to 105%.
Taken in the same sequence, the figures for `Cn1nc(C(F)(F)F)cc1[C@H]1[C@H]2O[C@H](C[C@@H]2O)[C@@H]1C(=O)Nc1ccc(C(F)(F)F)cc1` (racemic) [Example 62, rac-(1R,2R,3S,4R,5S)-5-hydroxy-3-(1-methyl-3-(trifluoromethyl)-1H-pyrazol-5-yl)-N-(4-(trifluoromethyl)phenyl)-7-oxabicyclo[2.2.1]heptane-2-carboxamide] were 16 µM and 73%.

In general, IC50 refers to the concentration that inhibits the measured activity by half.
